{
  "source": "patent US9937178B2",
  "about": "“Methods of identifying and using MDM2 inhibitors” (DUKE UNIVERSITY, priority 2011, dated 2018)",
  "key": {"HER2": {"molecular_target": "HER2 (Homo sapiens, UniProt P04626)", "sequence (P04626 23-1255)": "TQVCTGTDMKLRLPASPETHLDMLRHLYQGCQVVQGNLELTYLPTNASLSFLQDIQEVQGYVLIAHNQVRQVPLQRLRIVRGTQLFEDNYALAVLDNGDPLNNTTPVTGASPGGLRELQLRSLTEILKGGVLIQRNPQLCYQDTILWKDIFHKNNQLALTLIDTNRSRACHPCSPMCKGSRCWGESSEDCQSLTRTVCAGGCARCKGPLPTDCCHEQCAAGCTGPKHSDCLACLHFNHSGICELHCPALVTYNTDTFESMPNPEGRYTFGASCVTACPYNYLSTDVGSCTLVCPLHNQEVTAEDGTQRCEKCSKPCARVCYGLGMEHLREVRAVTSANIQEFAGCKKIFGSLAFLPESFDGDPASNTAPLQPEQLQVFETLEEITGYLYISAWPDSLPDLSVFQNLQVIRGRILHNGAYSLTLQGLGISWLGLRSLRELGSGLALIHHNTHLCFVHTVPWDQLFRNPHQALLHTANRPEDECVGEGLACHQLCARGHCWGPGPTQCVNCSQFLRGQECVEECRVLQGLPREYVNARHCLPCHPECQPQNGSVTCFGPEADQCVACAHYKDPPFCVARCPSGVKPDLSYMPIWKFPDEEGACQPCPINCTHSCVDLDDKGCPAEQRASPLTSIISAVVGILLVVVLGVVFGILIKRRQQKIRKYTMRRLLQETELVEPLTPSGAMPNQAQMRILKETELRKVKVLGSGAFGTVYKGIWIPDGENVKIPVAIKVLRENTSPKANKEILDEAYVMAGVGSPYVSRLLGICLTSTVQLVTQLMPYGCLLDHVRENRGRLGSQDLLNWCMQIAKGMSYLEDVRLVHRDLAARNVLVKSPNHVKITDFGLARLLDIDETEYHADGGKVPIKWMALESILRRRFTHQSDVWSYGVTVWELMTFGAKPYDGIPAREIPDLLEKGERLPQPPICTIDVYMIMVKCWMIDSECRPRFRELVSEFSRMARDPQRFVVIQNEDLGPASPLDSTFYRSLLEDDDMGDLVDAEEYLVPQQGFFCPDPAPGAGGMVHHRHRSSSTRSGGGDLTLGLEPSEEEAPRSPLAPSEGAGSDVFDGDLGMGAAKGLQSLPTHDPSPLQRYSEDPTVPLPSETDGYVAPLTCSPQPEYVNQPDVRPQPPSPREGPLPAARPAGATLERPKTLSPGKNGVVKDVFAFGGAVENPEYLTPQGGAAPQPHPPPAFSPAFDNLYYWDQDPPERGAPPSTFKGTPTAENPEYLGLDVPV", "test": "Immunoblot of phospho-HER2 in lapatinib-treated cells", "type": "cell-based", "conditions": "1 μM lapatinib, 24 hours, z-VAD 50 μM; even in resistant cells"}, "Akt": {"tested_on": "Akt", "test": "Immunoblot of phospho-AKT in lapatinib-treated cells", "type": "cell-based", "conditions": "sensitive and resistant cells, 1 μM lapatinib, 50 μM z-VAD"}, "Mcl-1": {"tested_on": "Mcl-1", "test": "Mcl-1 ubiquitylation (FLAG-Mcl-1 / HA-Ub immunoprecipitation)", "type": "cell-based", "conditions": "1 μM lapatinib, 24 hours", "protocol": "FIG. 3 is a set of photographs showing that Mcl-1 is stabilized in lapatinib-resistant cells. […] FIG. 3B is a set of immunoblots showing the levels of HER2 and phospho-HER2 in untreated cells and cells treated with lapatinib. Cells were treated with or without lapatinib (1 μM) for 24 hours in the presence of the caspase inhibitor z-VAD (50 μM). The cells were harvested and cell lysates were immunoblotted using antibodies against phospho-HER2 (Y877) and total HER2. FIG. 3C is an immunoblot for phospho-AKT (T308) and total AKT. BT474 and rBT474 cells were treated with 1 μM lapatinib in the presence of 50 μM z-VAD. At the indicated time points, the cells were harvested and immunoblotted. FIG. 3D is an immunoblot for phospho-Erl1/2(T202/Y204) and total Erk1/2. BT474 and rBT474 cells were treated with 1 μM lapatinib in the presence of 50 μM z-VAD. At the indicated time points, the cells were harvested and immunoblotted. […] FIG. 3F is an autoradiograph showing the ^35[S] radioactivity in lysates containing ^35[S]-Mcl-1 at the indicated time points. ^35[S]-labeled Mcl-1 protein was incubated in cell-free lysates prepared from BT474 and rBT474 cells (top) or SKBR3 and rSKBR3 cells (bottom). […] FLAG-Mcl-1 was retrieved by immunoprecipitation using anti-flag agarose, and Mcl-1 ubiquitylation was analyzed by immunoblotting for HA (*non-specific band, **IgG heavy chain). […]"}, "HSP90β": {"tested_on": "HSP90β", "test": "HSP90β phosphorylation (Ser226, Ser255)", "type": "cell-based", "experimental": "FIG. 7C is an autoradiograph of ^32P and an immunoblot showing the percentage of the protein phosphorylated. In the presence of [γ-^32P]ATP, recombinant His-tagged HSP90β proteins (wild type and the indicated mutants) on nickel beads were incubated with the HSP90β-targeted kinase casein kinase 2. FIG. 7D is an autoradiograph and corresponding immunoblot showing BT474 or rBT474 cells after being cultured in the absence or presence of 1 μM lapatinib for 24 hours in the presence of z-VAD. Recombinant His-tagged HSP90β protein on nickel beads was incubated with the cell lysates in the presence of [γ-^32P]ATP. FIG. 7E is an immunoblot for phospho-Hsp90β (Ser226) and total HSP90β at various time points. BT474 or rBT474 cells were treated with 1 μM lapatinib for the indicated amount of time. FIG. 7F is a set of graphs showing FACS analysis for the phosphorylation status of Hsp90β (Ser255). BT474 or rBT474 cells cultured in the presence of 1 μM lapatinib for 24 hours were fixed with formaldehyde and incubated with phospho-Hsp90β (Ser255) antibody followed by an Alexa488-conjugated secondary antibody."}, "CAS mRNA": {"tested_on": "CAS mRNA", "test": "Quantitative real-time PCR of CAS mRNA", "type": "cell-based", "conditions": "sensitive or resistant cells"}, "AU565-derived tumor": {"tested_on": "AU565-derived tumor", "test": "AU565 mammary fat pad xenograft", "type": "in vivo, mouse", "conditions": "100 mg/kg each drug, twice daily by oral gavage", "experimental": "Six week-old female nude mice were purchased from NCI Frederic. Xenograft tumors were produced by injection into the mammary fat pad with cells (10×10^6). Tumor volumes were calculated every 3-4 days based on caliper measurements of the short (a) and long (b) tumor diameters (volume=a2b/2). […] Mice were dosed orally with vehicle alone, lapatinib (100 mg/kg), Nutlin-3 (100 mg/kg), or combination of both twice daily by gavage."}, "BT474 xenografts": {"tested_on": "BT474 xenografts", "test": "BT474 mammary fat pad xenograft", "conditions": "100 mg/kg each drug, twice daily by oral gavage", "experimental": "Forty-eight hours after siRNA transfection, cells were treated with 1 μM lapatinib for 48 hours, and cells were harvested and subjected to Annexin V staining. The percentage of Annexin V-positive cells was analyzed by FACS. Results are expressed as a mean percentage±SEM and analyzed by t-test (*P<0.05). […] The oral administration of lapatinib (100 mg/kg, twice daily by oral gavage) began when the average tumor volume surpassed 300 mm^3. Results are expressed as a mean percentage±SEM. […] After 36 hours, cells were harvested and immunoblotted. […] BT474 and rBT474 cells were injected into the mammary fad pad of each mouse. When tumors developed to a size of 200 mm^3, the mice were randomly assigned to receive vehicle, lapatinib (100 mg/kg), Nutlin-3 (100 mg/kg), or Lapatinib+Nutlin-3 and treated twice daily by oral gavage. Results are expressed as a mean percentage±SEM. […] Percentage of apoptotic cell death was measured by FACS analysis using Annexin V. Results are expressed as a mean percentage±SEM of Annexin V-positive cells (*P<0.05 by t-test).\nSix week-old female nude mice were purchased from NCI Frederic. Xenograft tumors were produced by injection into the mammary fat pad with cells (10×10^6). Tumor volumes were calculated every 3-4 days based on caliper measurements of the short (a) and long (b) tumor diameters (volume=a2b/2). […]"}, "[1]": {"tested_on": "mitochondrial cytochrome c release", "test": "Western blot for cytochrome c in cytosolic lysates lacking mitochondria", "conditions": "1 μM lapatinib, 24 hours"}},
  "data": [
    {"molecule": "CS(=O)(=O)CCNCc1ccc(-c2ccc3ncnc(Nc4ccc(OCc5cccc(F)c5)c(Cl)c4)c3c2)o1", "note": "[lapatinib]", "values": [
      {"measurement": "HER2 tyrosine autophosphorylation", "setting": "HER2", "result": "inhibited"},
      {"measurement": "phosphorylation of Akt", "setting": "Akt", "result": "attenuated"},
      {"measurement": "Mcl-1 ubiquitylation", "setting": "Mcl-1; SKBR3 cells", "result": "enhanced"},
      {"measurement": "Mcl-1 ubiquitylation", "setting": "Mcl-1; rSKBR3 cells", "result": "diminished"},
      {"measurement": "HSP90β phosphorylation at both Ser226 and Ser255", "setting": "HSP90β; lapatinib-treated resistant cells compared to sensitive cells", "result": "markedly decreased"},
      {"measurement": "HSP90β phosphorylation", "setting": "HSP90β; normal BT474 cells, 1 μM lapatinib", "result": "did not prevent"},
      {"measurement": "CAS mRNA levels", "setting": "CAS mRNA", "result": "did not cause a reduction"},
      {"measurement": "AU565-derived tumor growth", "setting": "AU565-derived tumor", "result": "substantially inhibited"},
      {"measurement": "growth of BT474-derived tumors", "setting": "BT474 xenografts", "result": "significantly suppressed"},
      {"measurement": "mitochondrial cytochrome c release", "setting": "[1]; parental BT474 cells", "result": "induced mitochondrial cytochrome c release in parental BT474 cells"},
      {"measurement": "mitochondrial cytochrome c release", "setting": "[1]; rBT474 cells", "result": "not rBT474 cells"}
    ]}
  ]
}
